Assay results reported in patent publication US8741965B2, “Method of administering a pheromone composition to an animal to modify the animals behavior over an extended period of time” (Sergeant's Pet Care Products, Inc., priority 2011, dated 2014).
Marks after values point to notes of the source that are not given here.

Tests used:
dogs [1] = assay: Overall conclusions and meta-analysis across Studies 1-4; format: in vivo, dog
Method: Three delivery methods were examined (collar, spray, and room diffuser) and conclusions may be drawn about their efficacy. First, the pheromones were similar in efficacy when applied as a collar or spray. When used as a room diffuser, the pheromones/INTEROMONE® compositions had fewer significant effects compared with when they were delivered in collar or spray form. […] Meta-analyses were performed across studies to identify potential over-arching effects (FIGS. 18A and B). […] The reaction of most dogs to handling or startle was to go lay down; but the dogs exposed to rabbit INTEROMONE®were more likely to sit. Other than this general effect, each other finding must be considered within the context of the form of delivery (spray, collar or room diffuser) and the response of individual dog.

nervous dogs = assay: Example 11 Study 2: behavior and heart rate after collar or spray with startle; format: in vivo, dog
Description: Eight dogs were obtained from a local contract research facility and assessment was made as to general dog health, behavior and heart rate. The dogs were estimated to be 2 to 7 years of age, mixed breed, and weighed averagely 8.1±0.18 kg at the start of the studies. […] Upon arrival each dog was bathed using shampoo containing flea and tick medicine (Hartz Mountain Corp. Secaucus, N.J. USA), and their body hair was shaved. Each dog was kept in a single room, which had 100% fresh air intake and exhaust. The dogs were fed twice (am and pm) per day ad libitum. At that time, the room was cleaned and the dogs obtained extra exercise. Water was available ad libitum.
Dog behavior was captured on video media at a sampling rate of 30 frames per second. Video records were reviewed in real time (with tape playing 30 frames per second). A scan sampling method was used to record dog behaviors each minute or each 5 minutes depending on the particular study. If the sample period was 120 minutes with four periods (0-30=0, 30-60=30, 60-90=60, and 90-120-90 min), then a scan sample was recorded each 1 minute. If the sample period was 24 hours, then the scan sample was collected each 5 minutes and summarized each hour. For example, pacing is when a dog walks in a stereotyped manner for minutes to hours. Because it was not easy to distinguish walking from pacing, the behaviors were merged. In addition, the video records could not clearly distinguish lying down and awake versus lying down and sleeping, therefore there was no separate description for these two behaviors.
Heart rate during the studies was measured by the use of a non-invasive telemetry system (Data Science International, St. Paul, Minn., USA). Leads were placed in contact with the dogs' shaved skin. Sensors measured heart rate, surface temperature and general activity. Data were transmitted to a receiving computer in another room. The sampling rate varied with the study, but was 5 seconds for the first two hours after treatments and then each 1 minute for 24 hours (depending on the particular study). For surface temperature measurements of the dog subjects, a thermistor was located against the skin of each dog. It recorded the surface temperature to the neared 0.1° C. on the same interval as the heart rate data.
Behavior and physiological data (heart rate and surface temperature) were analyzed by least squares analysis of variance using SAS (2011) software and the general linear models procedures. The experimental design of each study was a specialized randomized complete block in a Latin square design with data collected as a split plot over time. Dogs represented the blocks. Each dog received each treatment randomly in successive days or weeks. The statistical model included effects of treatment (TRT), dog, dog by treatment (TRT*DOG; error term used to assess treatment and dog effects), time (HR), treatment by time (TRT*HR), and residual error (SE; used to test remaining effects). Behavior data were collected and analyzed as counts per time period, but for clarity of presentation, the data are reported as percentage of time dogs engaged in each behavior.
In Study 2, the dogs were exposed to the same treatments as in Study 1, except a startle was also applied. An aerosol can (Pet Corrector, The Company of Animals, Surrey, UK) was used to make a loud hissing noise and a spray of liquid as a startle. The protocol involved spraying the Rabbit Pheromone at 0, 30, 60, and 90 min (RP; 1 μg/mL) or collar application (PLACEBO, SERG, or DAPC) at time zero. Each dog was startled at 45 minutes. Data were recorded for 120 minutes. Data reporting periods were: 0 (0-30 min), 30 (30-60 min), and 90 (90-120 min).

dogs [2] = assay: Spray to face of dogs, heart rate for two hours (Example 10); format: in vivo, dog
Method: A spray composition comprising rabbit pheromone as an INTEROMONE® was prepared in accordance with Example 9. Four dogs were fitted with cloth jackets that contained electrodes to measure their heart rate. One dog was sprayed with the 2-methylbut-2-enal composition, one dog was sprayed with a placebo, and two dogs were sprayed with pheromone-based products currently on the market for purposes of modifying behavior. […] Data were collected for two hours following application of the spray to the facial/snout region of the four dogs. The control period was indicated as time zero (“0”) on FIG. 1 and FIG. 2.

dog = assay: Room diffuser containing rabbit pheromone, use on dogs (Example 8); format: in vivo; conditions: 0.02% 2-methylbut-2-enal
Description: A room diffuser formulation containing rabbit pheromone can be prepared according to typical industry techniques described above. Table 4 is the list of ingredients that can be used to prepare a diffuser formulation comprising a rabbit pheromone.

adult anxious dogs = assay: Collars, heart rate and behavior in adult anxious dogs, Latin square, foghorn startle (Example 6); format: in vivo, dog
Method: The objective of this study was to assess efficacy of pheromones/INTEROMONE® compositions to modulate heart rate and behavior in adult anxious dogs (trembling, cowering, shy). The dogs (8.1±0.18 kg; estimated 5-12 yr intact males) were obtained from a local research facility. Body weights and feed intake were recorded. Each dog was housed in a separately ventilated room with a minimum of 12 m^2 of floor space. Heart rate (HR) and surface temperature was measured using a telemetry system (Data Science International, St. Paul, Minn.). Behavior was recorded on a DVR and later reviewed by a trained individual. A scan sample was used with a recording interval of 5 min over 24 hours.
The dogs were treated with four different treatments on different days: Placebo collar (no Pheromone/INTEROMONE®), Pheromone only collar (Serg), Rabbit pheromone as INTEROMONE® collar (RP) (prepared in accordance with Example 1), and INTEROMONE® plus Pheromone collar (Serg+RP) (prepared in accordance with Example 3). At the end of 24 hours with a given collar, each dog was startled with a 110 db foghorn placed 12 cm from the dog's head while behavior and heart rate were recorded. Each dog received each treatment in a Latin square design with repeated measures over time. This model allowed evaluation of effects of treatment, dog, treatment by dog, time, treatment by time and dog by time.

cat = assay: Collar containing rabbit pheromone worn by cats (Example 7); format: in vivo; conditions: collar worn by a cat
Description: A collar containing 2-methylbut-2-enal can be prepared in accordance with Examples 1 or 2.

[3] = 120 minutes after startle, SERG, DAPC collars, RP spray 1 μg/mL

For `C/C=C(\C)C=O` [RP, 2-methylbut-2-enal], the “behaviors in meta-analysis across studies” value (dogs [1]; Studies 1, 2 and 4, FIG. 18) was “Only dog sitting behavior was increased”, the “overall effect on dog behavior and physiology” value (dogs [1]; collar, spray and room diffuser, all four studies) was “most consistent or largest effect on dog behavior and physiology” and the Defecate (nervous dogs; [3]) was 0.0 % of time. The Drink (nervous dogs; [3]) was 3.7 % of time, the Eat (nervous dogs; [3]) was 1.2 % of time and the Lick self (nervous dogs; [3]) was 0.0^b % of time. The Lying down (nervous dogs; [3]) was 46.4 % of time, the Pace-walk (nervous dogs; [3]) was 19.4 % of time and the Sitting (nervous dogs; [3]) was 53.8 % of time. For the same compound, the Standing (nervous dogs; [3]) was 23.4^b % of time, the Urinate (nervous dogs; [3]) was 0.0 % of time and the “lying down and sitting behavior of individual dogs after startle” value (nervous dogs; FIGS. 8 and 9) was “dogs 2, 3, 6 and 8 spent less time lying down but more time sitting after startle”. For the same compound, the “standing behavior after startle” value (nervous dogs; in comparison to Placebo or SERG collars) was “increased standing behavior among RP-sprayed dogs”, the “reduction of average dog heart rate” value (dogs [2]; FIG. 1) was 24.5 beats/min per hour and the “heart rate reduction over the two hour period” value (dogs [2]; compared to marketed products and placebo) was 30%. The “change in dog behavior” value (dog) was “significant change in behavior towards a calmer demeanor”, the HR after startle (adult anxious dogs; collar 24 h, 110 db foghorn, placebo 157.8±7.2, P<0.01) was 124.5±7.2 bpm and the time pacing (adult anxious dogs; collar, placebo 3.8±0.02, P<0.05) was 3.0±0.2%. The time lying down (adult anxious dogs; collar, placebo 63.2±4.8, P=0.01) was 87.4±5.4 % of time, the “effect on dog HR (summary)” value (adult anxious dogs; collars) was “lowered HR” and the “change in cat behavior” value (cat) was “significant change in behavior towards a calmer demeanor”.
